Values after ≈ are worked out from the molar mass of the structure shown.
Columns and labels:
K. pneumoniae WGLW2 = experiment: MIC assay; assay type: cell-based, Klebsiella pneumoniae; conditions: Klebsiella pneumoniae; K. pneumoniae WGLW2; read-out: Minimum inhibitory concentration
Excerpt: (§1) Bacterial strains, growth conditions, and persister isolation. Methicillin-resistant S. aureus strains, MW2 BAA-1707, ATCC 33591, and JE2, methicillin-susceptible S. aureus strains, NCTC 8325, Newman, and ATCC 29213, vancomycin-resistant S. aureus strain, VRS1, Enterococcus faecium E007, vancomycin-resistant E. faecium strains, C68,^7 WB312, and WC196, Klebsiella pneumoniae WGLW2 (BEI Resources, Manassas, Va., USA), Acinetobacter baumannii ATCC 17978, Pseudomonas aeruginosa PA14, and Enterobacter aerogenes ATCC 13048 were used to test antimicrobial activity (Table 1). S. aureus strains were grown in tryptic soy broth (TSB) (BD, Franklin Lakes, N.J., USA), and E. faecium was grown in brain-heart infusion (BHI) broth (BD, Franklin Lakes, N.J., USA) at 37° C. K. pneumoniae, A. baumannii, P. aeruginosa, and E. aerogenes were grown in Luria Bertani (LB) broth (BD, Franklin Lakes, N.J., USA) at 37° C.
(§2) Minimal inhibitory concentration (MIC) assay. The MICS of antibiotics were determined by the standard micro-dilution method recommended by the Clinical and Laboratory Standards Institute. MIC assays were conducted in biological triplicate.

P. aeruginosa PA14 = experiment: MIC assay; assay type: cell-based, Pseudomonas aeruginosa; conditions: Pseudomonas aeruginosa; P. aeruginosa PA14; read-out: Minimum inhibitory concentration
Excerpt: as §1, §2

[1] = test system: exponential-phase MRSA MW2; experiment: Killing kinetics assay; assay type: cell-based, S. aureus; conditions: 16 μg/ml (4× MIC), ~10^7 CFU/mL
Description: Killing kinetics assay. An MRSA MW2 overnight culture was diluted 1:10,000 in 25 mL TSB (˜10^5 CFU/mL) in a 250 mL flask and incubated at 37° C. with shaking at 200 rpm for 4.5 h until it reached exponential-phase (˜2×10^7 CFU/mL). 1 mL of the exponential phase cell culture was mixed with 1 mL of pre-warmed TSB containing twice the desired concentrations of antibiotics in a 96-well assay block (Corning Costar 3960). The assay block was incubated at 37° C. with shaking at 200 rpm. At every hour, 400 μl aliquots were taken, washed once with phosphate buffered saline (PBS), serially diluted and spot-plated onto tryptic soy agar (TSA, BD) plates. After incubation at 37° C. for overnight, colonies were counted to enumerate the number of cells. These experiments were conducted in biological triplicate.

MRSA MW2 biofilms = experiment: Biofilm persister killing assay; assay type: cell-based, S. aureus; conditions: 16 μg/ml nTZDpa combined with 10 μg/ml gentamicin, 24 h
Description: Biofilm persister killing assay. An overnight culture of cells was diluted 1:200 with TSB supplemented with 0.2% glucose and 3% NaCl. A 13 mm-diameter Millipore mixed cellulose ester membrane (EMD Millipore GSWP01300) was placed at the bottom of each well of a 12-well plate (Falcon 353043). 1 mL of the diluted culture was added to each well and incubated statically at 37° C. for 24 h. The membranes were washed 3-times with PBS and transferred to a fresh 12-well plate. 1 mL of PBS containing the desired concentration of antibiotics was added to each well, and then the plate was incubated statically at 37° C. for 24 h. The membranes were washed 3 times with PBS, placed in 2-mL microcentrifuge tubes containing 1 mL PBS, and sonicated in an ultrasonic bath (Fisher Scientific FS 30) for 10 min. The sonicated samples were serially diluted and spot-plated on TSA to enumerate the number of live cells. The experiment was conducted in biological triplicate.

MRSA MW2 [2] = experiment: Deep-seated mouse thigh infection model; assay type: in vivo; conditions: 5 days
Description: Deep-seated mouse thigh infection model. In vivo efficacy of nTZDpa alone or in combination with gentamicin against MRSA persisters was evaluated by a previously described neutropenic mouse thigh infection model with modifications. Six-week-old female CD-I mice (20-25 g, Charles River Laboratories, Wilmington, Mass., USA) were obtained from Charles River Laboratories (Wilmington, Mass., USA). The CD-I mice were rendered neutropenic by administering 150 mg/kg and 100 mg/kg of cyclophosphamide intraperitoneally (i.p.) at 4 days and 1 day before infection, respectively. On the day of infection, overnight culture of MRSA MVV2 was washed 3-time with sterile saline and diluted to 10^7 CFU/ml in the saline. 50 μl of the diluted culture (5×10^5 CFU per mouse) was injected to the right thigh of each mouse. nTZDpa was dissolved in Kolliphor EL (Sigma-Aldrich, St Louis, Mo., USA)/ethanol 1:1 and then diluted 1:10 in saline to a final concentration of 50 mg/kg. At 24 h post-infection, groups of mice (n=10) were treated with 30 mg/kg gentamicin subcutaneously (s.c.) every 12 h, 25 mg/kg vancomycin i.p. every 24 h, 50 mg/kg nTZPpa i.p. every 24 h, or the combination of 50 mg/kg nTZDpa i.p. every 24 h and 30 mg/kg gentamicin s.c. every 12 h for 5 days. Control mice were injected with 250 μl of 10% Kolliphor EL/ethanol in saline i.p. every 24 h for 5 days. Mice were euthanized at 96 h post-infection. Blood was collected by cardiac puncture, and the infected thighs were aseptically excised, weighed, and stored at 4° C. until homogenization. To evaluate hepatic and renal toxicities, the levels of alanine aminotransferase and blood urea nitrogen were analyzed with commercially available kits, following the manufacturer's protocol (Pointe Scientific, Canton, Mich., USA). Thighs were homogenized in PBS, serially diluted with PBS, and spot-plated on TSA plates. […] Statistical significance among each group was analyzed by one-way ANOVA with post-hoc Tukey test using PASW Statistics 18 (SPSS Inc. Chicago, Ill., USA).

[3] = test system: S. aureus and Enterococcus faecium clinical strains; experiment: MIC against a panel of clinical strains; assay type: cell-based; conditions: panel incl. multidrug-resistant MW2 and VRS1; read-out: minimal inhibitory concentration (MIC)
Excerpt: as §1, §2

MRSA MW2 [4] = experiment: Transmission electron microscopy; conditions: 4× MIC for 2 h

Which results are given for O=C(O)c1c(Sc2ccccc2)c2cc(Cl)ccc2n1Cc1ccc(Cl)cc1 [nTZDpa]?
MIC (K. pneumoniae WGLW2): > 64 µg/mL; MIC (P. aeruginosa PA14): > 64 µg/mL; time to complete eradication of exponential-phase MRSA MW2 [1]: ≤ 2 h; MRSA persisters formed in biofilms (MRSA MW2 biofilms): completely eradicated MRSA persisters formed in biofilms; persister cells killed in thigh (MRSA MW2 [2]; 50 mg/kg nTZDpa i.p. with 30 mg/kg gentamicin s.c., p<0.001): ~95%; MRSA CFUs / viability of persisters in thigh, single agent (MRSA MW2 [2]; vancomycin 25 mg/kg i.p., gentamicin 30 mg/kg s.c., nTZDpa 50 mg/kg i.p.): no effect on the viability of persisters; MIC [3]: ~4 µg/mL (≈ 9.34 µM); cell morphology by TEM (MRSA MW2 [4]): formation of mesosome-like structures in most cells, abnormal cell division, and cell lysis
